Source: PMC6253875, “Synthesis and Evaluation of Non-peptidic Cysteine Protease Inhibitors of P. falciparum Derived from Etacrynic Acid” (Molecules, 2008)
Like-named read-outs stand apart in the source and are kept apart here.

Columns and labels:
falcipain-2 = molecular target: T1, falcipain-2 (Plasmodium falciparum, UniProt Q8I6U4); test: Inhibition of recombinant falcipain-2, fluorometric microplate assay (Cbz-Phe-Arg-AMC); format: biochemical
T1 construct: made in house; host or cells: E. coli
T1 sequence (Q8I6U4 244-484): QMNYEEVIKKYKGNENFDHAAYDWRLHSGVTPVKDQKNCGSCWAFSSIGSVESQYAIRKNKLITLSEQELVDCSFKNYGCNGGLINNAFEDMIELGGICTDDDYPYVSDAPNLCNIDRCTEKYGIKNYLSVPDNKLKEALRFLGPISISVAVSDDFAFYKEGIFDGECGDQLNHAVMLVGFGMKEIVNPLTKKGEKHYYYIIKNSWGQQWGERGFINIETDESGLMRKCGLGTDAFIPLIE
Procedure: (§1) Recombinant falcipain-2 and falcipain-3 were produced as previously described. Inhibitory activities against recombinant falcipain-2 and falcipain-3 were evaluated in fluorometric microplate assays using the substrates Cbz-Phe-Arg-AMC and Cbz-Leu-Arg-AMC (AMC, 7-amino-4-methyl-coumarin). The cysteine protease inhibitor E-64 was used as a positive control. The solvent DMSO was used as negative control. […] The in vitro data for the etacrynic acid derivatives are compared to those of the well known drug chloroquine and to E-64.
(§2) Falcipain-2 and falcipain-3 were recombinantly expressed in E. coli and refolded to active enzyme as previously described.
(§3) IC50 values for inhibition of falcipain-2 and falcipain-3 were determined as described previously using the fluorogenic substrates Cbz-Phe-Arg-AMC and Cbz-Leu-Arg-AMC, respectively (AMC, 7-amino-4 methylcoumarin). As a positive control the well-known cysteine protease inhibitor E-64 [7, 25, 26] and as a negative control the solvent (DMSO) was used. Dose-dependent effects of compounds on parasite development (P. falciparum strain W2) were quantified by flow cytometry according to a previously published method. First, a screening with inhibitor concentrations of […] was performed and the percentage activity of infected red blood cells (RBCs) relative to the negative control was determined. […] Chloroquine and E-64 were used as positive controls, and the solvent DMSO was used as a negative control. For selected compounds assays with the P. falciparum strain 3D7 were performed using a fluorometric assay with Hoechst-33258 [28], or the microculture tetrazolium test measuring parasite lactate dehydrogenase activity. The parasites were cultivated in vitro as described previously. Compounds were screened at concentrations between 1 nM and 100 μM. Synchronized ring stages were plated in 96-well plates at a parasitemia of 1%, in the presence of the compounds (dissolved in DMSO). Incubation of parasites with DMSO alone at a concentration of 0.5% v/v was used as a negative control. IC50 values were calculated by non-linear regression analyses using the programs GaphPad® Prism 4 and GraFit® [31, 32].

P. falciparum strain W2 = test: Antiplasmodial activity in vitro, parasite development quantified by flow cytometry; format: cell-based, Plasmodium falciparum; conditions: W2 strain (CQ-resistant), ni = no inhibition; for IC50: read-out: P. f. 3D7/W2, IC50
Procedure: as §3

falcipain-3 = molecular target: T2, falcipain-3 (Plasmodium falciparum, UniProt Q8IIL0); test: Inhibition of recombinant falcipain-3, fluorometric microplate assay (Cbz-Leu-Arg-AMC); format: biochemical
T2 construct: made in house; host or cells: E. coli
T2 sequence (Q8IIL0 243-492): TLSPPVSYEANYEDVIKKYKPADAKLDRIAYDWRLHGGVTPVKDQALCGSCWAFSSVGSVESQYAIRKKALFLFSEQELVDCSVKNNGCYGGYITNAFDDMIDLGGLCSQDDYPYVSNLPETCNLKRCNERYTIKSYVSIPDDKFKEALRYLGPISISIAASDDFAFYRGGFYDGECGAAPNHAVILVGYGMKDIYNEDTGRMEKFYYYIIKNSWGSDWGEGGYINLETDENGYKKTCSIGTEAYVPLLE
Procedure: as §1, §2, §3

P. falciparum strain 3D7 = test: Antiplasmodial activity in vitro, Hoechst-33258 fluorometric assay or parasite lactate dehydrogenase test; format: cell-based; conditions: Plasmodium falciparum; 3D7 strain (CQ-sensitive); read-out: P. f. 3D7/W2, IC50
Procedure: as §1, §3

[1] = recombinant falcipain-2, values marked ^a: only one experiment, ni = no inhibition
[2] = Plasmodium falciparum, 3D7 / W2
[3] = recombinant falcipain-3, ni = no inhibition, read-out: FP-3 IC50
[4] = recombinant falcipain-2, values marked ^a: only one experiment, ni = no inhibition, read-out: FP-2 IC50
[5] = recombinant falcipain-3, ni = no inhibition

SMILES | P. f. 3D7/W2, IC50 (P. falciparum strain W2) | IC50 (falcipain-3; [3]) [µM] | IC50 (falcipain-2; [4]) [µM] | also measured
CCCCNC(=O)COc1ccc(C(=O)CCC)cc1F [Compound 30, N-butyl-2-(4-butyryl-2-fluorophenoxy)acetamide] | – | – | – | FP-2 IC50 (falcipain-2; [1]): ni
C=C(CC)C(=O)c1ccc(OCC(=O)N2CCN(CC)CC2)c(Cl)c1Cl [Compound 19] | – | – | – | IC50 (P. falciparum strain W2; [2]): 27.4 ± 4.1 µM; IC50 (falcipain-3): 557 ± 23 µM; IC50 (falcipain-2): 144 ± 11 µM
C=C(CC)C(=O)c1ccc(OCC(=O)NCCCCCC)c(Cl)c1Cl [Compound 21] | nic | 123 ± 8 | 182 ± 9 | –
CCCC(=O)c1ccc(OCC(=O)NC(C(=O)OC)C(C)CC)c(F)c1 (stereo not shown) [Compound 32, Methyl 2-(2-(4-butyryl-2-fluorophenoxy)acetamido)-3-methylpentanoate] | – | – | – | FP-2 IC50 (falcipain-2; [1]): ni
CCCCNC(=O)COc1ccc(C(=O)CCC)c(Cl)c1Cl [Compound 27, N-butyl-2-(4-butyryl-2,3-dichloro-phenoxy)-acetamide] | ni^c | – | 713 | FP-3 IC50 (falcipain-3; [5]): ni
C=C(CC)C(=O)c1ccc(OCC(=O)O)c(Cl)c1Cl [Compound 8, etacrynic acid] | ni^c | – | 443 ± 17 | FP-3 IC50 (falcipain-3; [5]): ni
C=C(CC)C(=O)c1ccc(OCC(=O)NCC(=O)N[C@@H](C)C(N)=O)c(Cl)c1Cl [Compound 15] | nic | – | 212 ± 17 | FP-3 IC50 (falcipain-3; [5]): ni
CC(C)C[C@H](NC(=O)[C@H]1O[C@@H]1C(=O)O)C(=O)NCCCCN=C(N)N [E-64, reference compound] | – | 0.075 ± 0.02 | 0.015 ± 0.008 | IC50 (P. falciparum strain W2): 5.3 ± 1.05 µM
C=C(CC)C(=O)c1ccc(OCC(=O)OC(C)(C)C)c(F)c1 [Compound 3, Tert-butyl 2-(2-fluoro-4-(2-methylenebutanoyl)phenoxy)acetate] | – | – | – | IC50 (P. falciparum strain 3D7): 142 ± 5 µM; FP-2 IC50 (falcipain-2; [1]): ni
C=C(CC)C(=O)c1ccc(OCC(=O)N[C@@H](C)C(=O)OCc2ccccc2)c(Cl)c1Cl [Compound 10] | ni^c | 56.7 ± 5.7 | 178 ± 14 | –
C=C(CC)C(=O)c1ccc(OCC(=O)Nc2ccccc2)c(Cl)c1Cl [Compound 13] | nic | 87.2 ± 6 | 269 ± 21 | –
C=C(CC)C(=O)c1ccc(OCC(=O)N2CCOCC2)c(Cl)c1Cl [Compound 17] | nic | 479 ± 23 | 305 ± 30 | –
C=C(CC)C(=O)c1ccc(OCC(=O)NC(C)(C)C(N)=O)c(Cl)c1Cl [Compound 14] | – | – | 318 ± 14 | IC50 (P. falciparum strain W2; [2]): 29.3 ± 3.4 µM; FP-3 IC50 (falcipain-3; [5]): ni
C=C(CC)C(=O)c1ccc(OCC(=O)NCc2ccccc2)c(Cl)c1Cl [Compound 11] | ni^c | 158 ± 11 | 333 ± 5 | –
C=C(CC)C(=O)c1ccc(OCC(=O)NC(C)(C)C)c(Cl)c1Cl [Compound 18] | nic | 153 ± 16 | 255 ± 4 | –
C=C(CC)C(=O)c1ccc(OCC(=O)NCCCCCCNC(=O)CCCCC2SCC3NC(=O)NC32)c(Cl)c1Cl (stereo not shown) [Compound 24, 5-(2-Oxo-hexahydro-thieno[3,4-d]imidazol-4-yl)pentanoic acid (6-{2-[2,3-dichloro-4-(2-methylene-butyryl)-phenoxy]acetylamino}-hexyl)-amide] | – | 11.9 ± 1.1 | 3 ± 1.1 | IC50 (P. falciparum strain W2; [2]): 9 ± 0.4 µM

SMILES | P. f. 3D7/W2, IC50 (P. falciparum strain W2) | IC50 (falcipain-3; [3]) [µM] | IC50 (falcipain-2; [4]) [µM] | also measured
CCCC(=O)c1ccc(OCC(=O)NC(C)(C)C)c(Cl)c1Cl [Compound 26, N-tert-butyl-2-(4-butyryl-2,3-dichloro-phenoxy)-acetamide] | ni^c | – | 484 | FP-3 IC50 (falcipain-3; [5]): ni
C=C(CC)C(=O)c1ccc(OCC(=O)NCC(=O)N[C@@H](Cc2ccccc2)C(N)=O)c(Cl)c1Cl [Compound 16] | nic | – | 242 ± 19 | FP-3 IC50 (falcipain-3; [5]): ni
C=C(CC)C(=O)c1ccc(Cl)cc1OCC(=O)OCC [Compound 2] | ni^c | 381 ± 21 | 110 ± 5 | –
C=C(CC)C(=O)c1ccc(OCC(=O)OCC)c(Cl)c1Cl [Compound 9] | ni^c | 163 ± 5.6 | 60.6 ± 4.2 | –
C=C(CC)C(=O)c1ccc(OCC(=O)O)c(F)c1 [Compound 4, 2-(2-fluoro-4-(2-methylenebutanoyl)phenoxy)acetic acid] | – | – | – | IC50 (P. falciparum strain 3D7): 79.8 ± 6 µM
CCCC(=O)c1ccc(OCC(=O)NC(C)(C)C)c(F)c1 [Compound 28, N-tert-butyl-2-(4-butyryl-2-fluorophenoxy)acetamide] | – | – | 80 ± 6 | IC50 (P. falciparum strain W2; [2]): 66.4 ± 2.2 µM
CCCC(=O)c1ccc(OCC(=O)NC(C)(C)CO)c(F)c1 [Compound 31, 2-(4-Butyryl-2-fluorophenoxy)-N-(1-hydroxy-2-methylpropan-2-yl)acetamide] | – | – | – | FP-2 IC50 (falcipain-2; [1]): ni
C=C(CC)C(=O)c1ccc(OCC(=O)NCCCC)c(Cl)c1Cl [Compound 20] | nic | 158 ± 17 | 184 ± 17 | –
C=C(CC)C(=O)c1ccc(OCC(=O)NC(CCC(=O)O)C(=O)O)c(Cl)c1Cl (stereo not shown) [Compound 22, 2-{2-[2,3-Dichloro-4-(2-methylene-butyryl)-phenoxy]acetylamino}pentanedioic acid] | nic | – | – | FP-3 IC50 (falcipain-3; [5]): ni; FP-2 IC50 (falcipain-2; [1]): ni
C=C(CC)C(=O)c1ccc(OCC(=O)NC(C(=O)OC)C(C)CC)c(F)c1 (stereo not shown) [Compound 7, Methyl-2-(2-(2-fluoro-4-(2-methylenebutanoyl)phenoxy)acetamido)-3-methylpentanoate] | – | – | – | FP-2 IC50 (falcipain-2; [1]): ni
CCCC(=O)c1ccc(OCC(=O)OC(C)(C)C)c(F)c1 [Compound 29, Tert-butyl-2-(4-butyryl-2-fluorophenoxy)acetate] | – | – | 80 ± 6 | –
CCC(C)C(=O)c1ccc(OCC(=O)O)c(Cl)c1Cl (stereo not shown) [Compound 25] | ni^c | – | 531 | FP-3 IC50 (falcipain-3; [5]): ni
C=C(CC)C(=O)c1ccc(OCC(=O)OCC)c(Cl)c1 [Compound 1] | ni^c | 346 ± 14 | 498 ± 8 | –
C=C(CC)C(=O)c1ccc(OCC(=O)N[C@H](C)C(=O)OCc2ccccc2)c(Cl)c1Cl [Compound 12] | – | – | 165 ± 12 | –
C=C(CC)C(=O)c1ccc(OCC(=O)NC(C)(C)C)c(F)c1 [Compound 5, N-tert-butyl-2-(2-fluoro-4-(2-methylenebutanoyl)phenoxy)acetamide] | – | – | 80 ± 5 | IC50 (P. falciparum strain 3D7): 205 ± 9 µM
